How the values were obtained:
[1] = molecular target: Coagulation factor X (Homo sapiens, UniProt P00742); assay: In vitro inhibition of human Coagulation factor X.
[2] = molecular target: Prothrombin (Homo sapiens, UniProt P00734); assay: In vitro inhibition of human Coagulation factor II.

Chain of Coagulation factor X (P00742 41-179 limits assumed): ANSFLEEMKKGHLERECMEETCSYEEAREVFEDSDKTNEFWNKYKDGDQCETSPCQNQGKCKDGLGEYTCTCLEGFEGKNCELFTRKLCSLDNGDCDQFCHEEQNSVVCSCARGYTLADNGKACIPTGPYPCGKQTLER
Chain of Coagulation factor X (P00742 235-488 limits assumed): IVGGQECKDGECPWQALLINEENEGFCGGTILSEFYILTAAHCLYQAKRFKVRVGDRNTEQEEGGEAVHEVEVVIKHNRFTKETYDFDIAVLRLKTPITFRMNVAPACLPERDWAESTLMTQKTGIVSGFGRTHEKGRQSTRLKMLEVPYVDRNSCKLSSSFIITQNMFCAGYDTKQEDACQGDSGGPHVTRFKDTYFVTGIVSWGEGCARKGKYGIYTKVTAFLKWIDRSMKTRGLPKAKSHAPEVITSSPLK

| Compound | Ki [1] [nM] | Ki [2] [nM] |
| --- | --- | --- |
| N=C(N)c1ccc(CNc2ccc3ccn(-c4ccc(C(=N)N)cc4)c3c2)cc1 | 840 | 4530 |
| N=C(N)c1ccc(-n2ccc3ccc(NCc4cccc(C(=N)N)c4)cc32)cc1 | 340 | 3780 |
| N=C(N)c1cccc(Oc2ccc3c4ccccc4n(Cc4ccc5ccc(C(=N)N)cc5c4)c3c2)c1 | 0.9 | 170 |
| N=C(N)c1ccc2ccc(Cn3c4ccccc4c4ccc(OC5CCNCC5)cc43)cc2c1 | 4 | 90 |
| N=C(N)c1ccc(CNc2ccc3ccn(Cc4ccc(C(=N)N)cc4)c3c2)cc1 |  | 3530 |
| N=C(N)c1ccc(Oc2ccc3c4ccccc4n(Cc4ccc5ccc(C(=N)N)cc5c4)c3c2)cc1 |  | 210 |
| N=C(N)c1cccc(CNc2ccc3ccn(-c4cccc(C(=N)N)c4)c3c2)c1 | 190 | 4000 |
| N=C(N)c1ccc(-n2c3ccccc3c3ccc(OCc4ccc5ccc(C(=N)N)cc5c4)cc32)cc1 | 60 | 1990 |
| COC(=O)c1cc2ccc(OC3CCN(C(C)=N)CC3)cc2n1Cc1ccc2ccc(C(=N)N)cc2c1 | 0.2 | 180 |
| CC(=N)N1CCC(Oc2ccc3c4ccccc4n(Cc4ccc5ccc(C(=N)N)cc5c4)c3c2)CC1 | 1.6 | 40 |
| N=C(N)c1ccc(-n2ccc3ccc(NC(=O)c4cccc(C(=N)N)c4)cc32)cc1 | 160 | 2320 |
| CN(C)C(=O)COc1ccc2c3ccccc3n(Cc3ccc4ccc(C(=N)N)cc4c3)c2c1 | 5 | 50 |
| N=C(N)c1ccc(-n2ccc3ccc(NCc4ccc5ccc(C(=N)N)cc5c4)cc32)cc1 | 30 | 570 |
| CCOC(=O)c1cc2ccc(OC3CCN(C(C)=N)CC3)cc2n1Cc1ccc2ccc(C(=N)N)cc2c1 | 0.6 | 360 |
| CC(=N)N1CCC(Oc2ccc3cc(C(=O)O)n(Cc4ccc5ccc(C(=N)N)cc5c4)c3c2)CC1 | 4.6 | 520 |
| CC(=N)N1CCC(Oc2ccc3cc(C(=O)N(C)C)n(Cc4ccc5ccc(C(=N)N)cc5c4)c3c2)CC1 | 3.5 | 1050 |
| CC(=N)N1CCC(Oc2ccc3cc(C(=O)NC(CC(=O)O)C(=O)O)n(Cc4ccc5ccc(C(=N)N)cc5c4)c3c2)CC1 (configuration not stated) | 20 | 2350 |

From ChEMBL document CHEMBL1133499, “Design, synthesis, and in vitro biological activity of indole-based factor Xa inhibitors” (Bioorg Med Chem Lett, 2000)
